# Counter-ions that a name gives are not always drawn.
# Molecular target: T1, recombinant human LTA4 hydrolase (rhLTA4H) (Homo sapiens, UniProt P09960)
# T1 construct: made in house; host or cells: Spodoptera frugiperda (Sf-9) cells, recombinant baculovirus (pFastBac1)
# T1 sequence (P09960 1-611): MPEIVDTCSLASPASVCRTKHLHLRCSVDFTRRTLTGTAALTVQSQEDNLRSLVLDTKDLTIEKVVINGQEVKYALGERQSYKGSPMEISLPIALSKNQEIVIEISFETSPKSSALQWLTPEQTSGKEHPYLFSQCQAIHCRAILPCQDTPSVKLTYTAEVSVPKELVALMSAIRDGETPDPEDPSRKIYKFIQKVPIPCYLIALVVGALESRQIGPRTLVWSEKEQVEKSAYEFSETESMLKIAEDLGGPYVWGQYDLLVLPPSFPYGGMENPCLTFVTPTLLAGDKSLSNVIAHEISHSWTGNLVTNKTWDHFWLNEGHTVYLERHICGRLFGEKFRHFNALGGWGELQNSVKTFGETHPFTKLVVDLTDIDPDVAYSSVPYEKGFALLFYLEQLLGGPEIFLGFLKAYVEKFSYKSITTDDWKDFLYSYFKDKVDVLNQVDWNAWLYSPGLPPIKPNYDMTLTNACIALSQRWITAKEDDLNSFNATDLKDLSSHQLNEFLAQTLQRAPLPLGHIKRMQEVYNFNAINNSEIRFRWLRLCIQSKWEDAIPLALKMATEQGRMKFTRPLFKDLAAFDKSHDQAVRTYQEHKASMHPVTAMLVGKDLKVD
# Assay: Recombinant human LTA4 hydrolase assay for LTA4 hydrolase inhibitor activity
# Assay type: biochemical
# Conditions: rhLTA4H, LTA4 substrate, LTB4 by immunoassay; single determination or average; read-out: IC50
# Method: Assay 1: Recombinant Human LTA4 Hydrolase Assay for LTA4 Hydrolase Inhibitor Activity
# Compounds of the present invention were tested for LTA4 hydrolase inhibitor activity against recombinant human LTA4 hydrolase (rhLTA4H). Vectors were prepared and used to express rhLTA4H essentially as follows: LTA4 hydrolase encoding DNA was amplified by polymerase chain reaction (PCR) using a human placental cDNA library as a template. […] The amplified 1.9 kb DNA fragment encoding LTA4 hydrolase was isolated and cloned into the pFastBac1 vector (Invitrogen). Recombinant baculovirus was generated as described by the manufacturer, and used to infect Spodoptera frugiperda (Sf-9) cells. […] The purified enzyme solution was adjusted to contain 0.29 mg/mL LTA4 hydrolase, 50 mM Tris (pH 8.0), 150 mM NaCl, 5 mM dithiothreitol, 50% glycerol, and EDTA-free Complete protease inhibitor cocktail (Roche).
# LTA4 substrate was prepared from the methyl ester of LTA4 (Cayman Chemical) by treatment with 67 equiv of NaOH under nitrogen at rt for 40 min. The LTA4 substrate in its free acid form was kept frozen at −80° C. until needed. Each compound was diluted to different concentrations in assay buffer (from Assay Designs) containing 10% DMSO. A 25-μL aliquot of each compound dilution was incubated for 10 min at rt with an equal volume of assay buffer containing 10 ng of recombinant human LTA4H. The solution was then adjusted to 200 μL with assay buffer. […] Each reaction was carried out at rt for 30 min. The reaction was stopped by diluting 10 μL of the reaction mixture with 200 μL of assay buffer. LTB4 was quantified in the diluted sample by a commercially available enzyme-linked immunoassay (Cayman Chemical Co.), as recommended by the manufacturer. Positive controls, under essentially identical conditions but without addition of an inhibitor compound, and negative controls, containing all assay components except enzyme, were routinely run in each experiment. IC50 values were determined by nonlinear regression of the activity data at different compound concentrations using Graphpad Prism 4.0, one site binding competition.
# The values presented here are the result of a single determination or an average of two or more determinations, as indicated in parentheses following each value. For compounds tested three or more times, the average value is followed by the standard deviation
row,Structure (SMILES),IC50
1,"c1cc(C2CCN(Cc3ccc(Oc4nc5cnccc5s4)cc3)CC2)ccn1 [Example 190, 2-({4-[(4-Pyridin-4-ylpiperidin-1-yl)methyl]phenyl}oxy)[1,3]thiazolo[4,5-c]pyridine]",455 nM
2,"c1cncc(OC2CCN(Cc3ccc(Oc4nc5ccncc5s4)cc3)CC2)c1 [Example 248, 2-(4-{[4-(Pyridin-3-yloxy)piperidin-1-yl]methyl}phenoxy)[1,3]thiazolo[5,4-c]pyridine]",1160 nM
3,"c1cc2sc(Oc3ccc(CCN4CCCC4)cc3)nc2cn1 [Example 221, 2-[4-(2-Pyrrolidin-1-ylethyl)phenoxy][1,3]thiazolo[4,5-c]pyridine]",181 nM
4,"NC(=O)N[C@@H]1C[C@H]2CC[C@@H](C1)N2Cc1ccc(Oc2nc3ccncc3s2)cc1 [Example 200, meso-1-{(3-exo)-8-[4-([1,3]Thiazolo[5,4-c]pyridin-2-yloxy)benzyl]-8-azabicyclo[3.2.1]oct-3-yl}urea]",374 nM
5,"c1cc2sc(Oc3ccc(CN4CCCCC4)cc3)nc2cn1 [Example 133, 2-[4-(Piperidin-1-ylmethyl)phenoxy][1,3]thiazolo[4,5-c]pyridine]",1870 nM
6,"CC(C)(CO)NC(=O)C1CCN(CCOc2ccc(Oc3nc4cnccc4s3)cc2)CC1 [Example 161, N-(2-Hydroxy-1,1-dimethylethyl)-1-(2-{[4-([1,3]thiazolo[4,5-c]pyridin-2-yloxy)phenyl]oxy}ethyl)piperidine-4-carboxamide]",535 nM
7,"Cc1ccnc2nc(Oc3ccc(OCCN4CCC(O)(c5ccccn5)CC4)cc3)sc12 [Example 158, 1-(2-{4-[(7-Methyl[1,3]thiazolo[4,5-b]pyridin-2-yl)oxy]phenoxy}ethyl)-4-pyridin-2-ylpiperidin-4-ol]",194 nM
8,"c1cnc2sc(Oc3ccc(OCCN4CCOCC4)cc3)nc2n1 [Example 150, 2-[4-(2-Morpholin-4-ylethoxy)phenoxy][1,3]thiazolo[4,5-b]pyrazine]",602 nM
9,"Cc1ccnc2nc(Oc3ccc(CN4C[C@H]5CC[C@@H](C4)N5C(N)=O)cc3)sc12 [Example 203, meso-3-{4-[(7-Methyl[1,3]thiazolo[4,5-b]pyridin-2-yl)oxy]benzyl}-3,8-diazabicyclo[3.2.1]octane-8-carboxamide]",679 nM
10,"Cc1ccnc2sc(Oc3ccc(CN4CCC(C(N)=O)CC4)cc3)nc12 [Example 286, 1-{4-[(7-Methyl[1,3]thiazolo[5,4-b]pyridin-2-yl)oxy]benzyl}piperidine-4-carboxamide]",> 10000 nM
11,"O=C1CCCN1C1CCN(Cc2ccc(Oc3nc4cccnc4s3)cc2)CC1 [Example 112, 1-{1-[4-([1,3]Thiazolo[5,4-b]pyridin-2-yloxy)benzyl]piperidin-4-yl}pyrrolidin-2-one]",370 nM
12,"Cc1ccnc2sc(Oc3ccc(CN4CCCCC4)cc3)nc12 [Example 280, 7-Methyl-2-[4-(piperidin-1-ylmethyl)phenoxy][1,3]thiazolo[5,4-b]pyridine]",> 10000 nM
13,"OCCCN(CCOc1ccc(Oc2nc3ccncc3s2)cc1)CC1CC1 [Example 156, 3-[(Cyclopropylmethyl){2-[4-([1,3]thiazolo[5,4-c]pyridin-2-yloxy)phenoxy]ethyl}amino]propan-1-ol]",494 nM
14,"O=C(C1CC1)N1CCN(CCc2ccc(Oc3nc4ncc(Cl)cc4s3)cc2)CC1 [Example 197, 6-Chloro-2-[(4-{2-[4-(cyclopropylcarbonyl)piperazin-1-yl]ethyl}phenyl)oxy][1,3]thiazolo[4,5-b]pyridine]",360 nM

# These reach a lower IC50. Values come first.
row,IC50,Structure (SMILES)
1,114 nM,"Cc1ccnc2nc(Oc3ccc(OCCN4[C@@H]5CC[C@H]4C[C@@H](NC(=O)CN)C5)cc3)sc12 [Example 166, meso-N-{(3-endo)-8-[2-({4-[(7-Methyl[1,3]thiazolo[4,5-b]pyridin-2-yl)oxy]phenyl}oxy)ethyl]-8-azabicyclo[3.2.1]oct-3-yl}glycinamide hydrochloride]"
2,38 nM,"c1cnc2sc(Oc3ccc(CCN4CCCCCC4)cc3)nc2n1 [Example 179, 2-{[4-(2-Azepan-1-ylethyl)phenyl]oxy}[1,3]thiazolo[4,5-b]pyrazine]"
3,110 nM,"CC(=O)N1C[C@@H]2C[C@H]1CN2CCc1ccc(Oc2nc3cccnc3s2)cc1 [Example 51, 2-(4-{2-[(1S,4S)-5-Acetyl-2,5-diazabicyclo[2.2.1]hept-2-yl]ethyl}phenoxy)[1,3]thiazolo[5,4-b]pyridine]"
4,72 nM,"NC(=O)N1C[C@H]2C[C@@H]1CN2Cc1ccc(Oc2nc3ncc(Cl)cc3s2)cc1 [Example 191, (1R,4R)-5-({4-[(6-Chloro[1,3]thiazolo[4,5-b]pyridin-2-yl)oxy]phenyl}methyl)-2,5-diazabicyclo[2.2.1]heptane-2-carboxamide]"
5,8.3 nM,"OC1(c2ccccc2)CCN(CCc2ccc(Oc3nc4ncccc4s3)cc2)CC1 [Example 62, 4-Phenyl-1-{2-[4-([1,3]thiazolo[4,5-b]pyridin-2-yloxy)phenyl]ethyl}piperidin-4-ol]"
6,114 nM,"OCCN(CCOc1ccc(Oc2nc3cccnc3s2)cc1)CC1CC1 [Example 157, 2-[(Cyclopropylmethyl){2-[4-([1,3]thiazolo[5,4-b]pyridin-2-yloxy)phenoxy]ethyl}amino]ethanol]"
7,34 nM,"CS(=O)(=O)N1C[C@H]2CC[C@@H](C1)N2CCOc1ccc(Oc2nc3ncccc3s2)cc1 [Example 213, meso-2-(4-{2-[3-(Methylsulfonyl)-3,8-diazabicyclo[3.2.1]oct-8-yl]ethoxy}phenoxy)[1,3]thiazolo[4,5-b]pyridine]"
8,160 nM,"c1ccc(CC2CCN(CCOc3ccc(Oc4nc5nccnc5s4)cc3)CC2)cc1 [Example 23, 2-{4-[2-(4-Benzylpiperidin-1-yl)ethoxy]phenoxy}[1,3]thiazolo[4,5-b]pyrazine]"
9,141 nM,"CS(=O)(=O)N[C@@H]1C[C@H]2CC[C@@H](C1)N2Cc1ccc(Oc2nc3ccncc3s2)cc1 [Example 249, meso-N-{(3-exo)-8-[4-([1,3]Thiazolo[5,4-c]pyridin-2-yloxy)benzyl]-8-azabicyclo[3.2.1]oct-3-yl}methanesulfonamide]"
10,42 nM,"NC(=O)N[C@@H]1C[C@H]2CC[C@@H](C1)N2Cc1ccc(Oc2nc3nccnc3s2)cc1 [Example 199, meso-1-{(3-exo)-8-[4-([1,3]Thiazolo[4,5-b]pyrazin-2-yloxy)benzyl]-8-azabicyclo[3.2.1]oct-3-yl}urea]"
11,175 nM,"Cc1cnc2nc(Oc3ccc(CCN4CCC(C(=O)N5CCCC5)CC4)cc3)sc2c1 [Example 198, 6-Methyl-2-[(4-{2-[4-(pyrrolidin-1-ylcarbonyl)piperidin-1-yl]ethyl}phenyl)oxy][1,3]thiazolo[4,5-b]pyridine]"
12,109 nM,"Cc1cnc2nc(Oc3ccc(CN4CCC(NC(=O)c5cccs5)CC4)cc3)sc2c1 [Example 220, N-(1-{4-[(6-Methyl[1,3]thiazolo[4,5-b]pyridin-2-yl)oxy]benzyl}piperidin-4-yl)thiophene-2-carboxamide]"
13,87 nM,"CCCN(CCC)CCc1ccc(Oc2nc3cnccc3s2)cc1 [Example 196, N-Propyl-N-{2-[4-([1,3]thiazolo[4,5-c]pyridin-2-yloxy)phenyl]ethyl}propan-1-amine]"
14,29 nM,"CC(=O)N1[C@@H]2CC[C@H]1C[C@H](NCc1ccc(Oc3nc4ncccc4s3)cc1)C2 [Example 170, meso-(3-exo)-8-Acetyl-N-{[4-([1,3]thiazolo[4,5-b]pyridin-2-yloxy)phenyl]methyl}-8-azabicyclo[3.2.1]octan-3-amine]"
15,130 nM,"CC(=O)N1C[C@@H]2C[C@H]1CN2CCOc1ccc(Oc2nc3cccnc3s2)cc1 [Example 20, 2-(4-{2-[(1S,4S)-5-Acetyl-2,5-diazabicyclo[2.2.1]hept-2-yl]ethoxy}phenoxy)[1,3]thiazolo[5,4-b]pyridine]"

# — patent publication US20110190503A1, “Thiazolopyridin-2-yloxy-phenyl and thiazolopyrazin-2-yloxy-phenyl amines as modulators of leukotriene A4 hydrolase” (Janssen Pharmaceutical NV, priority 2008, published 2011)
